Literature values as cited in patent US12685710B2, “Administration of ciclopirox with no adversal gastrointestinal toxicity” (ATLAS MOLECULAR PHARMA, S.L., priority 2021, dated 2026).

Tested on: patients with hematological malignancies

Cc1cc(C2CCCCC2)n(O)c(=O)c1 [ciclopirox olamine, 6-cyclohexyl-1-hydroxy-4-methyl-2 (1H)-pyridone with 2-aminoethanol in a 1:1 ratio]
grade 3 GI dose limiting toxicity (DLTs) and bowel inflammation, patients affected in cohort (oral, OraSweet formulation, 80 mg/m^2 (2.2 mg/kg) 4 times daily): 3/4
tolerability of once-daily dosing (oral, once daily up to and including 40 mg/m^2 (1.1 mg/kg)): well tolerated
gastrointestinal toxicity in Phase I study (patients treated with ciclopirox olamine): showed gastrointestinal toxicity
